According to patent US8084479B2, “Thiazole compounds and methods of use” (Amgen Inc., priority 2006, dated 2011):

Target: PKBα (Homo sapiens, UniProt P31749)
Test: PKB kinase assay (P33-labeled ATP, peptide substrate, filter plate)
Format: biochemical
Conditions: PKBα enzyme (full length or kinase domain with pleckstrin domain deleted)
Source text: The kinase assay for evaluating PKB activity comprises active PKB enzymes, a PKB specific substrate, and P^33-labeled ATP. […] The phosphorylated substrate was captured by a phosphocellulose membrane filter plate (MLLIPORE) and measured by a Wallac Microbeta liquid scintillation counter (Perkin Elmer).

PKBα, sequence (P31749 118-480 limits assumed): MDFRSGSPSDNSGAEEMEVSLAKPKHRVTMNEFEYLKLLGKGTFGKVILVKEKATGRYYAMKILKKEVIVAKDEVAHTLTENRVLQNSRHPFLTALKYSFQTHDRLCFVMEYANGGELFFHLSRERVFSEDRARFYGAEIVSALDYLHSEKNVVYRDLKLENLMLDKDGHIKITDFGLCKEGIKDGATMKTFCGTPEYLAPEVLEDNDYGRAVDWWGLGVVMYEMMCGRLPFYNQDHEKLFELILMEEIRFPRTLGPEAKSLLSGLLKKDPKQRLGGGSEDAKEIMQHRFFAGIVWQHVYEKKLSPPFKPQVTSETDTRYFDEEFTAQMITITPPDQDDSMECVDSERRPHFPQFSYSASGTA

N[C@H](CNc1ncc(-c2ccc3c(c2)CC(=O)N3)s1)[C@@H](CO)c1ccc(C(F)(F)F)cc1 [Example 158, 5-(2-((2S,3S)-2-amino-4-hydroxy-3-(4-(trifluoromethyl)phenyl)butylamino)thiazol-5-yl)indolin-2-one]
IC50: < 0.05 µM

N[C@H](CNc1ncc(-c2ccc3cnccc3c2)s1)[C@@H](CO)c1ccc(C(F)(F)F)cc1 [Example 159, (2S,3S)-3-amino-4-(5-(isoquinolin-6-yl)thiazol-2-ylamino)-2-(4-(trifluoromethyl)phenyl)butan-1-ol]
IC50: < 0.05 µM

N[C@H](CNc1ncc(-c2ccc3[nH]c(=O)oc3c2)s1)[C@@H](CO)c1ccc(C(F)(F)F)cc1 [Example 160, 6-(2-((2S,3S)-2-amino-4-hydroxy-3-(4-(trifluoromethyl)phenyl)butylamino)thiazol-5-yl)benzo[d]oxazol-2(3H)-one]
IC50: < 0.05 µM

N[C@H](CNc1ncc(-c2ccc3cnccc3c2)s1)Cc1cc(F)cc(F)c1 [Example 161, N—((S)-2-amino-3-(3,5-difluorophenyl)propyl)-5-(isoquinolin-6-yl)thiazol-2-amine]
IC50: 0.05 to 1 µM

Cn1c(=O)[nH]c2ccc(-c3cnc(NC[C@@H](N)Cc4cc(F)cc(F)c4)s3)cc21 [Example 162, 6-(2-((S)-2-amino-3-(3,5-difluorophenyl)propylamino)thiazol-5-yl)-1-methyl-1H-benzo[d]imidazol-2(3H)one]
IC50: 1 to 10 µM

N[C@H](CNc1ncc(-c2ccc3c(c2)CC(=O)N3)s1)Cc1cc(F)cc(F)c1 [Example 163, 5-(2-((S)-2-amino-3-(3,5-difluorophenyl)propylamino)thiazol-5-yl)indolin-2-one]
IC50: 1 to 10 µM

N[C@H](CNc1ncc(-c2ccc3[nH]c(=O)oc3c2)s1)Cc1cc(F)cc(F)c1 [Example 164, 6-(2-((S)-2-amino-3-(3,5-difluorophenyl)propylamino)thiazol-5-yl)benzo[d]oxazol-2(3H)one]
IC50: 0.05 to 1 µM

NC(CNc1nc(Cl)c(-c2ccc3cnccc3c2)s1)Cc1ccc(C(F)(F)F)cc1 (centres unmarked) [Example 165]
IC50: 0.05 to 1 µM

N#Cc1ccc(-c2cnc(NC[C@@H](N)Cc3ccc(C(F)(F)F)cc3)s2)cc1F [Example 166, 4-(2-((S)-2-amino-3-(4-(trifluoromethyl)phenyl)propylamino)thiazol-5-yl)-2-fluorobenzonitrile]
IC50: 0.05 to 1 µM

Cn1ncc2ccc(-c3cnc(NC[C@@H](N)Cc4ccc(C(F)(F)F)cc4)s3)cc21 [Example 167, N—((S)-2-amino-3-(4-(trifluoromethyl)phenyl)propyl)-5-(1-methyl-1H-indazol-6-yl)thiazol-2-amine]
IC50: 1 to 10 µM

N[C@H](CNc1nc(C(F)(F)F)c(-c2ccc3cnccc3c2)s1)Cc1ccc(Cl)cc1 [Example 168]
IC50: 0.05 to 1 µM

N[C@H](CNc1nc(C2CC2)c(-c2ccc3cnccc3c2)s1)Cc1ccc(C(F)(F)F)cc1 [Example 169]
IC50: 0.05 to 1 µM

N[C@H](CNc1ncc(-c2ccc3cnccc3c2)s1)Cc1ccc(C(F)(F)F)nc1 [Example 170]
IC50: < 0.05 µM

N[C@H](CNc1ncc(-c2ccc3c(c2)CC(=O)N3)s1)Cc1ccc(C(F)(F)F)nc1 [Example 171, 5-(2-((S)-2-amino-3-(6-(trifluoromethyl)pyridine-3-yl)propylamino)thiazol-5-yl)indolin-2-one]
IC50: < 0.05 µM

N[C@H](CNc1ncc(-c2ccc3[nH]c(=O)oc3c2)s1)Cc1ccc(C(F)(F)F)nc1 [Example 172, 6-(2-((S)-2-amino-3-(6-(trifluoromethyl)pyridine-3-yl)propylamino)thiazol-5-yl)benzo[d]oxazol-2(3H)-one]
IC50: < 0.05 µM

COc1cc(C[C@H](N)CNc2ncc(-c3ccc4cnccc4c3)s2)cnc1C(F)(F)F [Example 173]
IC50: < 0.05 µM

COc1cc(C[C@H](N)CNc2ncc(-c3ccc4c(c3)CC(=O)N4)s2)cnc1C(F)(F)F [Example 174, 5-(2-((S)-2-amino-3-(5-methoxy-6-(trifluoromethyl)pyridin-3-yl)propylamino)thiazol-5-yl)indolin-2-one]
IC50: 0.05 to 1 µM

COc1cc(C[C@H](N)CNc2ncc(-c3ccc4[nH]c(=O)n(C)c4c3)s2)cnc1C(F)(F)F [Example 175, 6-(2-((S)-2-amino-3-(5-methoxy-6-(trifluoromethyl)pyridin-3-yl)propylamino)thiazol-5-yl)-1-methyl-1H-benzo[d]imidazol-2(3H)-one]
IC50: < 0.05 µM

NC(CNc1ncc(-c2ccc3c(c2)CC(=O)N3)s1)Cc1ccc(C(F)(F)F)cc1F (centres unmarked) [Example 176, 5-(2-(-2-amino-3-(2-fluoro-4-(trifluoromethyl)phenyl)propylamino)thiazol-5-yl)indolin-2-one]
IC50: 0.05 to 1 µM

NC(CNc1ncc(-c2ccc3cnccc3c2)s1)Cc1ccc(C(F)(F)F)cc1F (centres unmarked) [Example 177, N-(-2-amino-3-(2-fluoro-4-(trifluoromethyl)phenyl)propyl)-5-(isoquinolin-6-yl)thiazol-2-amine]
IC50: < 0.05 µM

NC(CNc1ncc(-c2ccc3[nH]c(=O)oc3c2)s1)Cc1ccc(C(F)(F)F)cc1F (centres unmarked) [Example 178, 6-(2-(-2-amino-3-(2-fluoro-4-(trifluoromethyl)phenyl)propylamino)thiazol-5-yl)benzo[d]oxazol-2(3H)-one]
IC50: < 0.05 µM

NC(CNc1ncc(-c2ccc3c(c2)CC(=O)N3)s1)Cc1ccc(C(F)(F)F)c(F)c1 (centres unmarked) [Example 179, 5-(2-(-2-amino-3-(3-fluoro-4-(trifluoromethyl)phenyl)propylamino)thiazol-5-yl)indolin-2-one]
IC50: < 0.05 µM

NC(CNc1ncc(-c2ccc3[nH]c(=O)oc3c2)s1)Cc1ccc(C(F)(F)F)c(F)c1 (centres unmarked) [Example 181, 6-(2-(2-amino-3-(3-fluoro-4-(trifluoromethyl)phenyl)propylamino)thiazol-5-yl)benzo[d]oxazol-2(3H)-one]
IC50: < 0.05 µM

N[C@@H](CNc1ncc(-c2ccc3[nH]c(=O)oc3c2)s1)Cc1ccc(C(F)(F)F)c(F)c1 [Example 182, 6-(2-((R)-2-amino-3-(3-fluoro-4-(trifluoromethyl)phenyl)propylamino)thiazol-5-yl)benzo[d]oxazol-2(3H)-one]
IC50: 0.05 to 1 µM

N[C@H](CNc1ncc(-c2ccc3[nH]c(=O)oc3c2)s1)Cc1ccc(C(F)(F)F)c(F)c1 [Example 183, 6-(2-((S)-2-amino-3-(3-fluoro-4-(trifluoromethyl)phenyl)propylamino)thiazol-5-yl)benzo[d]oxazol-2(3H)-one]
IC50: < 0.05 µM

Cn1c(=O)[nH]c2ccc(-c3cnc(NC[C@@H](N)Cc4ccc(C(F)(F)F)c(F)c4)s3)cc21 [Example 184, 6-(2-((S)-2-amino-3-(3-fluoro-4-(trifluoromethyl)phenyl)propylamino)thiazol-5-yl)-1-methyl-1H-benzo[d]imidazol-2(3H)-one]
IC50: < 0.05 µM

N[C@H](CNc1ncc(-c2ccc3c(c2)CC(=O)N3)s1)Cc1ccc(C(F)(F)F)c(F)c1 [Example 185, 5-(2-((S)-2-amino-3-(3-fluoro-4-(trifluoromethyl)phenyl)propylamino)thiazol-5-yl)indolin-2-one]
IC50: < 0.05 µM

N[C@H](CNc1ncc(-c2ccc3[nH]ncc3c2)s1)Cc1ccc(C(F)(F)F)c(F)c1 [Example 186, N—((S)-2-amino-3-(3-fluoro-4-(trifluoromethyl)phenyl)propyl)-5-(1H-indazol-5-yl)thiazol-2-amine]
IC50: < 0.05 µM

NC(CNc1ncc(-c2ccc3[nH]c(=O)oc3c2)s1)Cc1ccc(OC(F)(F)F)cc1 (centres unmarked) [Example 187, 6-(2-(-2-amino-3-(4-(trifluoromethoxy)phenyl)propylamino)thiazol-5-yl)benzo[d]oxazol-2(3H)-one]
IC50: 0.05 to 1 µM

NC(CNc1ncc(-c2ccc3c(c2)CC(=O)N3)s1)Cc1ccc(OC(F)(F)F)cc1 (centres unmarked) [Example 188, 5-(2-(-2-amino-3-(4-(trifluoromethoxy)phenyl)propylamino)thiazol-5-yl)indolin-2-one]
IC50: < 0.05 µM

NC(CNc1ncc(-c2ccc3cnccc3c2)s1)Cc1ccc(OC(F)(F)F)cc1 (centres unmarked) [Example 189, N-(-2-amino-3-(4-(trifluoromethoxy)phenyl)propyl)-5-(isoquinolin-6-yl)thiazol-2-amine]
IC50: < 0.05 µM

NC(CNc1ncc(-c2ccc3[nH]ncc3c2)s1)Cc1ccc(C(F)(F)F)c(F)c1F (centres unmarked) [Example 190, N-(2-amino-3-(2,3-difluoro-4-(trifluoromethyl)phenyl)propyl)-5-(1H-indazol-5-yl)thiazol-2-amine]
IC50: < 0.05 µM

Cn1c(=O)[nH]c2ccc(-c3cnc(NCC(N)Cc4ccc(C(F)(F)F)c(F)c4F)s3)cc21 (centres unmarked) [Example 191, 6-(2-(2-amino-3-(2,3-difluoro-4-(trifluoromethyl)phenyl)propylamino)thiazol-5-yl)-1-methyl-1H-benzo[d]imidazol-2(3H)-one]
IC50: 0.05 to 1 µM

N[C@H](CNc1ncc(-c2ccc3c(c2)CC(=O)N3)s1)Cc1ccc(O)cc1 [Example 192, 5-(2-((S)-2-amino-3-(4-hydroxyphenyl)propylamino)thiazol-5-yl)indolin-2-one]
IC50: 1 to 10 µM

N[C@H](CNc1ncc(-c2ccc3[nH]c(=O)[nH]c3c2)s1)Cc1ccc(C(F)(F)F)cc1 [Example 193, 5-(2-((S)-2-amino-3-(4-(trifluoromethyl)-phenyl)propylamino)thiazol-5-yl)-1H-benzo[d]imidazol-2(3H)-one]
IC50: 0.05 to 1 µM

CN(C)C(=O)c1nc(NC[C@@H](N)Cc2ccc(C(F)(F)F)cc2)sc1-c1ccc2cnccc2c1 [Example 194, 2-((S)-2-amino-3-(4-(trifluoromethyl)phenyl)propylamino)-5-(isoquinolin-6-yl)-N,N-dimethylthiazole-4-carboxamide]
IC50: 0.05 to 1 µM

N[C@H](CNc1nc(C(=O)N2CCCC2)c(-c2ccc3cnccc3c2)s1)Cc1ccc(C(F)(F)F)cc1 [Example 195, (2-((S)-2-amino-3-(4-(trifluoromethyl)phenyl)propylamino)-5-(isoquinolin-6-yl)thiazol-4-yl)(pyrrolidin-1-yl)methanone]
IC50: 1 to 10 µM

N[C@H](CNc1nc(C2CCCO2)c(-c2ccc3cnccc3c2)s1)Cc1ccc(Cl)cc1 (stereo partly drawn) [Example 196, N—((S)-2-amino-3-(4-chlorophenyl)propyl)-5-(isoquinolin-6-yl)-4-(tetrahydrofuran-2-yl)thiazol-2-amine]
IC50: 0.05 to 1 µM
